Results on 11 compounds are retold here after patent US12077503B2, “Substituted cyclic amides and their use as herbicides” (FMC CORPORATION, priority 2015, dated 2024).

Test in all cases: Test A postemergence
Holding throughout (format): in vivo

Experiment [1] deals with giant foxtail (Setaria faberii). The conditions noted are these: Setaria faberi, post-emergence, 240 h; for pest or weed control at 125 g/ha: 125 g ai/ha; for pest or weed control at 500 g/ha: 500 g ai/ha, visual injury, 0 to 100 scale (0 no effect, 100 complete control). In a few lines:
(§1)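 Preemergence soil spray on seeded pots or post-emergence spray on 1–2 leaf plants, in loam–sand blend. Greenhouse ~10 d. Visual rating 0–100 against untreated plants.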

Experiment [2] has as its system ryegrass, Italian (Italian ryegrass, Lolium multiflorum). The conditions noted are these: Lolium multiflorum, post-emergence, 240 h; for pest or weed control at 125 g/ha: 125 g ai/ha. An outline of the steps:
as §1

Experiment [3] deals with Kochia (Kochia scoparia). The conditions noted are these: Bassia scoparia, post-emergence, 240 h; for pest or weed control at 125 g/ha: 125 g ai/ha; for pest or weed control at 500 g/ha: 500 g ai/ha, visual injury, 0 to 100 scale (0 no effect, 100 complete control). In a few lines: as §1
In experiment [4] the test system is pigweed (Amaranthus retroflexus). The conditions noted are these: Amaranthus retroflexus, post-emergence, 240 h; for pest or weed control at 125 g/ha: 125 g ai/ha. An outline of the steps: as §1
In experiment [5] the test system is wheat (Triticum aestivum). The conditions noted are these: Triticum aestivum, post-emergence, 240 h; for plant injury at 125 g/ha: 125 g ai/ha. An outline of the steps: as §1
Experiment [6] has as its system blackgrass (Alopecurus myosuroides). The conditions noted are these: Alopecurus myosuroides, post-emergence, 240 h; for pest or weed control at 125 g/ha: 125 g ai/ha; for pest or weed control at 500 g/ha: 500 g ai/ha, visual injury, 0 to 100 scale (0 no effect, 100 complete control). In a few lines: as §1
The mark [7] stands for this setting: Postemergence, visual injury after approximately 10 d, 0 to 100 scale where 0 is no effect and 100 is complete control, read-out: Plant response rating, Foxtail, Giant.
The mark [8] stands for this setting: Postemergence, visual injury after approximately 10 d, 0 to 100 scale where 0 is no effect and 100 is complete control, read-out: Plant response rating, Ryegrass, Italian.
Setting [9] is: Postemergence, visual injury after approximately 10 d, 0 to 100 scale where 0 is no effect and 100 is complete control, read-out: Plant response rating, Kochia.
The mark [10] stands for this setting: Postemergence, visual injury after approximately 10 d, 0 to 100 scale where 0 is no effect and 100 is complete control, read-out: Plant response rating, Pigweed.
Setting [11] is: Postemergence, visual injury after approximately 10 d, 0 to 100 scale where 0 is no effect and 100 is complete control, read-out: Plant response rating, Wheat.
Where [12] appears, read: Postemergence, visual injury after approximately 10 d, 0 to 100 scale where 0 is no effect and 100 is complete control, read-out: Plant response rating, Blackgrass.
Setting [13] is: postemergence, visual injury rating after approximately 10 d, read-out: Foxtail, Giant plant response rating (0 to 100 scale, 0 no effect, 100 complete control).
Setting [14] is: postemergence, visual injury rating after approximately 10 d, read-out: Ryegrass, Italian plant response rating (0 to 100 scale, 0 no effect, 100 complete control).
[15] abbreviates: postemergence, visual injury rating after approximately 10 d, read-out: Kochia plant response rating (0 to 100 scale, 0 no effect, 100 complete control).
The mark [16] stands for this setting: postemergence, visual injury rating after approximately 10 d, read-out: Pigweed plant response rating (0 to 100 scale, 0 no effect, 100 complete control).
Setting [17] is: postemergence, visual injury rating after approximately 10 d, read-out: Wheat plant response rating (0 to 100 scale, 0 no effect, 100 complete control).
The mark [18] stands for this setting: postemergence, visual injury rating after approximately 10 d, read-out: Blackgrass plant response rating (0 to 100 scale, 0 no effect, 100 complete control).
Where [19] appears, read: postemergence, visual injury on 0 to 100 scale (0 no effect, 100 complete control), approx. 10 d, read-out: Foxtail, Giant plant response rating.
The mark [20] stands for this setting: postemergence, approx. 10 d, read-out: Plant response rating, Foxtail, Giant.
Setting [21] is: postemergence, visual injury on 0 to 100 scale (0 no effect, 100 complete control), approx. 10 d, read-out: Ryegrass, Italian plant response rating.
The mark [22] stands for this setting: postemergence, visual injury on 0 to 100 scale (0 no effect, 100 complete control), approx. 10 d, read-out: Kochia plant response rating.
The mark [23] stands for this setting: postemergence, approx. 10 d, read-out: Plant response rating, Kochia.
The mark [24] stands for this setting: postemergence, visual injury on 0 to 100 scale (0 no effect, 100 complete control), approx. 10 d, read-out: Pigweed plant response rating.
Where [25] appears, read: postemergence, visual injury on 0 to 100 scale (0 no effect, 100 complete control), approx. 10 d, read-out: Wheat plant response rating.
The mark [26] stands for this setting: postemergence, approx. 10 d, read-out: Plant response rating, Blackgrass.

Like-named read-outs stand apart in the source and are kept apart here.

For the compound `CCOc1cc([C@H]2CN(C)C(=O)[C@@H]2C(=O)Nc2cccc(F)c2F)cc(C(F)(F)F)c1` [Compound 971], the pest or weed control at 125 g/ha in experiment [1] (setting [7]) worked out at 80%; in experiment [2] (setting [8]), 50%; in experiment [3] (setting [9]), 40%; in experiment [4] (setting [10]), 50%; in experiment [6] (setting [12]), 50%. The pest or weed control at 31 g/ha was 80% in experiment [1] (Postemergence, 31 g ai/ha, visual injury after approx. 10 d, 0 to 100 scale, 0 no effect, 100 complete control, read-out: Plant response rating, Foxtail, Giant); 20% in experiment [2] (Postemergence, 31 g ai/ha, visual injury after approx. 10 d, 0 to 100 scale, 0 no effect, 100 complete control, read-out: Plant response rating, Ryegrass, Italian); 20% in experiment [3] (Postemergence, 31 g ai/ha, visual injury after approx. 10 d, 0 to 100 scale, 0 no effect, 100 complete control, read-out: Plant response rating, Kochia); 20% in experiment [4] (Postemergence, 31 g ai/ha, visual injury after approx. 10 d, 0 to 100 scale, 0 no effect, 100 complete control, read-out: Plant response rating, Pigweed); 40% in experiment [6] (Postemergence, 31 g ai/ha, visual injury after approx. 10 d, 0 to 100 scale, 0 no effect, 100 complete control, read-out: Plant response rating, Blackgrass). The plant injury at 125 g/ha in experiment [5] (setting [11]) came to 50%. In addition, the plant injury at 31 g/ha in experiment [5] (Postemergence, 31 g ai/ha, visual injury after approx. 10 d, 0 to 100 scale, 0 no effect, 100 complete control, read-out: Plant response rating, Wheat) turned out to be 30%.

For the compound `CCOc1ccc([C@H]2CN(C)C(=O)[C@@H]2C(=O)Nc2cccc(F)c2F)cc1` [Compound 904], the pest or weed control at 125 g/ha worked out at 80% in experiment [1] (setting [13]); 0% in experiment [2] (setting [14]); 30% in experiment [3] (setting [15]); 0% in experiment [4] (setting [16]); 30% in experiment [6] (setting [18]). In experiment [5] (setting [17]), the plant injury at 125 g/ha was 0%.

Regarding `COc1cc([C@H]2CN(C)C(=O)[C@@H]2C(=O)Nc2ccccc2F)cc(C(F)(F)F)c1` [Compound 855], the pest or weed control at 125 g/ha in experiment [1] (setting [13]) was 90%; in experiment [2] (setting [14]), 20%; in experiment [3] (setting [15]), 0%; in experiment [4] (setting [16]) it was 20%; in experiment [6] (setting [18]) it was 60%. In addition, the plant injury at 125 g/ha in experiment [5] (setting [17]) was determined as 50%.

As to `O=C(Nc1cccc(F)c1F)[C@H]1C(=S)NC[C@@H]1c1ccc(C(F)(F)F)cc1` (racemic) [Compound 1048], the pest or weed control at 125 g/ha in experiment [1] (setting [19]) came out at 60%; in experiment [2] (setting [21]), 30%; in experiment [3] (setting [22]) it was 30%; in experiment [4] (setting [24]), 30%; in experiment [6] (postemergence, visual injury on 0 to 100 scale (0 no effect, 100 complete control), approx. 10 d, read-out: Blackgrass plant response rating), 20%. For the same compound, the pest or weed control at 500 g/ha in experiment [1] (setting [20]) was 80%; in experiment [3] (setting [23]), 60%; in experiment [6] (setting [26]), 30%. For the same compound, the plant injury at 125 g/ha in experiment [5] (setting [25]) came to 20%.

Regarding `CN1CC[C@H](c2ccc(OC(F)(F)F)cc2)[C@@H](C(=O)Nc2cccc(F)c2F)C1=O` [Compound 999], the pest or weed control at 125 g/ha was found to be 40% in experiment [1] (setting [7]); 0% in experiment [2] (setting [8]); 40% in experiment [3] (setting [9]); 0% in experiment [4] (setting [10]); 0% in experiment [6] (setting [12]). Besides, the plant injury at 125 g/ha in experiment [5] (setting [11]) came out at 0%.

On to `Cc1cc(C)cc([C@H]2CNC(=O)[C@@H]2C(=O)Nc2ccccc2F)c1` [Compound 888], for which the pest or weed control at 125 g/ha was determined as 30% in experiment [1] (setting [13]); 0% in experiment [2] (setting [14]); 0% in experiment [3] (setting [15]); 0% in experiment [4] (setting [16]); 20% in experiment [6] (setting [18]). Moreover, in experiment [5] (setting [17]), the plant injury at 125 g/ha was 0%.

Regarding `CN1C[C@H](c2cc(F)cc(F)c2)[C@@H](C(=O)Nc2ccc(C(F)(F)F)cn2)C1=O` [Compound 869], the pest or weed control at 125 g/ha was found to be 60% in experiment [1] (setting [13]); 0% in experiment [2] (setting [14]); 0% in experiment [3] (setting [15]); 0% in experiment [4] (setting [16]); 0% in experiment [6] (setting [18]). Also, the plant injury at 125 g/ha in experiment [5] (setting [17]) amounted to 0%.

Regarding `COc1c(F)ccc([C@H]2CNC(=O)[C@@H]2C(=O)Nc2ccc(F)cc2F)c1Cl` [Compound 883], the pest or weed control at 125 g/ha worked out at 70% in experiment [1] (setting [13]); 0% in experiment [2] (setting [14]); 30% in experiment [3] (setting [15]); 0% in experiment [4] (setting [16]); 0% in experiment [6] (setting [18]). In addition, the plant injury at 125 g/ha in experiment [5] (setting [17]) stood at 0%.

`Cc1ccc([C@H]2CNC(=O)[C@@H]2C(=O)Nc2cccc(F)c2F)cc1C` [Compound 1034]: the pest or weed control at 125 g/ha in experiment [1] (setting [19]) was 20%; in experiment [2] (setting [21]) it was 0%; in experiment [3] (setting [22]), 20%; in experiment [4] (setting [24]), 0%; in experiment [6] (setting [12]) it was 20%. Besides, the pest or weed control at 500 g/ha was found to be 80% in experiment [1] (setting [20]); 60% in experiment [2] (500 g ai/ha, postemergence, visual injury, 0 to 100 scale (0 no effect, 100 complete control), approx. 10 d, read-out: Plant response rating, Ryegrass, Italian); 30% in experiment [3] (setting [23]); 0% in experiment [4] (500 g ai/ha, postemergence, visual injury, 0 to 100 scale (0 no effect, 100 complete control), approx. 10 d, read-out: Plant response rating, Pigweed); 30% in experiment [6] (setting [26]). The plant injury at 125 g/ha in experiment [5] (setting [25]) turned out to be 0%. The plant injury at 500 g/ha in experiment [5] (500 g ai/ha, postemergence, visual injury, 0 to 100 scale (0 no effect, 100 complete control), approx. 10 d, read-out: Plant response rating, Wheat) came to 50%.

Consider `CN1CC[C@H](c2cccc(Cl)c2)[C@@H](C(=O)Nc2cccc(Cl)c2F)C1=O` [Compound 924], for which the pest or weed control at 125 g/ha in experiment [1] (setting [7]) came out at 90%; in experiment [2] (setting [8]), 0%; in experiment [3] (setting [9]), 0%; in experiment [4] (setting [10]), 0%; in experiment [6] (setting [12]) it was 0%. Moreover, in experiment [5] (setting [11]), the plant injury at 125 g/ha was 0%.

As for `CCOc1cccc([C@H]2CN(C)C(=O)[C@@H]2C(=O)Nc2cccc(F)c2F)c1` [Compound 956], the pest or weed control at 125 g/ha in experiment [1] (setting [7]) worked out at 80%; in experiment [2] (setting [8]), 50%; in experiment [3] (setting [9]), 30%; in experiment [4] (setting [10]), 0%; in experiment [6] (setting [12]), 40%. Moreover, the plant injury at 125 g/ha in experiment [5] (setting [11]) was 30%.
